Results taken from patent publication US9562031B1, “Phenethyldihydrobenzodioxolones and methods of use” (Sequoia Sciences, Inc., priority 2015, dated 2017).
Where two headings read alike, the source gives them in different places.

Experiments:
[1] = tested on: M14 (amelanotic melanoma) cells; experiment: antiproliferation assay (72 h, CELLTITER 96), M14; format: cell-based, human; settings: Homo sapiens
Experimental: (§1) All of the compounds shown in Table 3-Table 8 below were prepared synthetically as described in EXAMPLE I. The compounds were tested for their ability to inhibit the proliferation of human cancer cells in vitro as described in the following paragraph. Table 3-Table 8 list the IC50 values in the M14 and NCI-H460 human cancer cell lines. IC50 is defined as the concentration of compound necessary to achieve 50% of the maximum growth inhibition.
(§2) For the antiproliferation assay, NCI-H460 (large cell lung carcinoma) or M14 (amelanotic melanoma) cells were grown in RPMI-1640 with 10% FBS supplemented with L-glutamine and HEPES. Cells were seeded into 96-well plates at 5×10^2 to 5×10^4 cells/well and allowed to adhere overnight; the medium was then removed. A stock solution of test compound in DMSO was diluted in medium to generate a series of working solutions. Aliquots (100 μl) of the working solutions were then added to the appropriate test wells to expose cells to the final concentrations of compound in a total volume of 100 μl. Seven different concentrations were tested, with 2-5 wells per concentration. Camptothecin was used as a positive control; wells containing vehicle without compound were used as negative controls. Plates were kept for 72 h in a 37° C., 5% CO2 incubator. After incubation, viable cells were detected with the CELLTITER 96 AQueous Non-Radioactive Cell Proliferation Assay (Promega), and IC50 values were determined using GraphPad Prism 5 software.

[2] = tested on: NCI-H460 (large cell lung carcinoma) cells; experiment: antiproliferation assay (72 h, CELLTITER 96), NCI-H460; format: cell-based, human; settings: Homo sapiens, read-out: NCI-H460 IC50
Experimental: as §1, §2

CCC[C@H]1C[C@]2([C@H](C)Cc3cc(O)c(OC)cc3F)OCOC2=CC1=O [Compound 60]
IC50 ([1]; Table 7): 5.9 nM
IC50 ([2]; NCI-H460, Table 7): 67 nM

C=CC[C@H]1C[C@]2([C@@H](C)Cc3cc(C)c(OC)cc3F)OCOC2=CC1=O [Compound 8, (6S,7aR)-6-allyl-7a-((S)-1-(2-fluoro-4-methoxy-5-methylphenyl)propan-2-yl)-7,7a-dihydrobenzo[d][1,3]dioxol-5(6H)-one]
IC50 ([1]; Table 3): 230 nM
IC50 ([2]; NCI-H460, Table 3): 650 nM

C=CC[C@H]1C[C@]2([C@H](C)Cc3ccc(OC)c(CO)c3)OCOC2=CC1=O [Compound 28, (6S,7aR)-6-allyl-7a-((R)-1-(3-(hydroxymethyl)-4-methoxyphenyl)propan-2-yl)-7,7a-dihydrobenzo[d][1,3]dioxol-5(6H)-one]
IC50 ([1]; Table 4): 10000 nM
IC50 ([2]; NCI-H460, Table 4): 4200 nM

C=CC[C@H]1C[C@]2([C@H](C)Cc3cc(C(=O)NC)c(OC)cc3F)OCOC2=CC1=O [Compound 13, 5-((R)-2-((3aR,5S)-5-allyl-6-oxo-3a,4,5,6-tetrahydrobenzo[d][1,3]dioxol-3a-yl)propyl)-4-fluoro-2-methoxy-N-methylbenzamide]
IC50 ([1]; Table 3): 190 nM
IC50 ([2]; NCI-H460, Table 3): 370 nM

CCC[C@H]1C[C@]2([C@@H](C)Cc3cc(O)c(OC)cc3F)OCOC2=CC1=O [Compound 59]
IC50 ([1]; Table 7): 58 nM
IC50 ([2]; NCI-H460, Table 7): 170 nM

COc1cc(F)c(C[C@H](C)[C@]23C[C@H](CCCF)C(=O)C=C2OCO3)cc1O [Compound 69, (6S,7aR)-7a-((S)-1-(2-fluoro-5-hydroxy-4-methoxyphenyl)propan-2-yl)-6-(3-fluoropropyl)-7,7a-dihydrobenzo[d][1,3]dioxol-5(6H)-one]
IC50 ([1]; Table 7): 570 nM
IC50 ([2]; NCI-H460, Table 7): 510 nM

C=CC[C@H]1C[C@]2([C@H](C)Cc3ccc(OC)cc3C)OCOC2=CC1=O [Compound 51, (6S,7aR)-6-allyl-7a-((R)-1-(4-methoxy-2-methylphenyl)propan-2-yl)-7,7a-dihydrobenzo[d][1,3]dioxol-5(6H)-one]
IC50 ([1]; Table 6): 280 nM
IC50 ([2]; NCI-H460, Table 6): 780 nM

COc1cc(F)c(C[C@H](C)[C@]23C[C@H](CC(C)O)C(=O)C=C2OCO3)cc1O (stereo partly drawn) [Compound 109, (6S,7aR)-7a-((S)-1-(2-fluoro-5-hydroxy-4-methoxyphenyl)propan-2-yl)-6-(2-hydroxypropyl)-7,7a-dihydrobenzo[d][1,3]dioxol-5(6H)-one]
IC50 ([1]; Table 7): 650 nM
IC50 ([2]; NCI-H460, Table 7): 1500 nM

C=CC[C@H]1C[C@]2([C@@H](C)Cc3ccc(OC(F)(F)F)cc3)OCOC2=CC1=O [Compound 41, (6S,7aR)-6-allyl-7a-((S)-1-(4-(trifluoromethoxy)phenyl)propan-2-yl)-7,7a-dihydrobenzo[d][1,3]dioxol-5(6H)-one]
IC50 ([1]; Table 5): > 20000 nM
IC50 ([2]; NCI-H460, Table 5): 3800 nM

CCC[C@H]1C[C@]2([C@@H](C)Cc3ccc(OC)c(OC)c3)OCOC2=CC1=O [Compound 70, (6S,7aR)-7a-((S)-1-(3,4-dimethoxyphenyl)propan-2-yl)-6-propyl-7,7a-dihydrobenzo[d][1,3]dioxol-5(6H)-one]
IC50 ([1]; Table 7): 7400 nM
IC50 ([2]; NCI-H460, Table 7): > 4000 nM

COc1cc(F)c(C[C@H](C)[C@]23C[C@H](CCSC)C(=O)C=C2OCO3)cc1O [Compound 76, (6R,7aR)-7a-((S)-1-(2-fluoro-5-hydroxy-4-methoxyphenyl)propan-2-yl)-6-(2-(methylthio)ethyl)-7,7a-dihydrobenzo[d][1,3]dioxol-5(6H)-one]
IC50 ([1]; Table 7): 300 nM
IC50 ([2]; NCI-H460, Table 7): 450 nM

C=CC[C@H]1C[C@]2([C@@H](C)Cc3cc(-c4ccccc4)c(OC)cc3F)OCOC2=CC1=O [Compound 91, (6S,7aR)-6-allyl-7a-((S)-1-(4-fluoro-6-methoxy-[1,1′-biphenyl]-3-yl)propan-2-yl)-7,7a-dihydrobenzo[d][1,3]dioxol-5(6H)-one]
IC50 ([1]; Table 3): > 20000 nM
IC50 ([2]; NCI-H460, Table 3): > 20000 nM

C=CC[C@H]1C[C@]2([C@@H](C)Cc3ccc(OC)nc3)OCOC2=CC1=O [Compound 86, (6S,7aR)-6-allyl-7a-((S)-1-(6-methoxypyridin-3-yl)propan-2-yl)-7,7a-dihydrobenzo[d][1,3]dioxol-5(6H)-one]
IC50 ([1]; Table 8): 180 nM
IC50 ([2]; NCI-H460, Table 8): 330 nM

C=CC[C@H]1C[C@]2([C@@H](C)Cc3ccc(OC)c4occc34)OCOC2=CC1=O [Compound 85, (6S,7aR)-6-allyl-7a-((S)-1-(7-methoxybenzofuran-4-yl)propan-2-yl)-7,7a-dihydrobenzo[d][1,3]dioxol-5(6H)-one]
IC50 ([1]; Table 8): 630 nM
IC50 ([2]; NCI-H460, Table 8): 730 nM

COc1ccc(CC(C)[C@]23C[C@H](CCCF)C(=O)C=C2OCO3)cc1OC (stereo partly drawn) [Compound 107, (6S,7aR)-7a-(1-(3,4-dimethoxyphenyl)propan-2-yl)-6-(3-fluoropropyl)-7,7a-dihydrobenzo[d][1,3]dioxol-5(6H)-one]
IC50 ([1]; Table 7): > 20000 nM
IC50 ([2]; NCI-H460, Table 7): > 20000 nM

C=CC[C@H]1C[C@]2([C@@H](C)Cc3cc(C(=O)OC)c(OC)cc3F)OCOC2=CC1=O [Compound 10, methyl 5-((S)-2-((3aR,5S)-5-allyl-6-oxo-3a,4,5,6-tetrahydrobenzo[d][1,3]dioxol-3a-yl)propyl)-4-fluoro-2-methoxybenzoate]
IC50 ([1]; Table 3): > 20000 nM
IC50 ([2]; NCI-H460, Table 3): 2200 nM

C=CC[C@H]1C[C@]2([C@H](C)Cc3ccc(OC)c(OC)c3)OCOC2=CC1=O [Compound 24, (6S,7aR)-6-allyl-7a-((R)-1-(3,4-dimethoxyphenyl)propan-2-yl)-7,7a-dihydrobenzo[d][1,3]dioxol-5(6H)-one]
IC50 ([1]; Table 4): 110 nM
IC50 ([2]; NCI-H460, Table 4): 320 nM

COc1ccc(CC(C)[C@]23CC(CC(C)=O)C(=O)C=C2OCO3)cc1OC (some centres unmarked) [Compound 106]
IC50 ([1]; Table 7): > 20000 nM
IC50 ([2]; NCI-H460, Table 7): > 20000 nM

C=CC[C@H]1C[C@]2([C@@H](C)Cc3ccc(N)c(F)c3)OCOC2=CC1=O [Compound 42, (6S,7aR)-6-allyl-7a-((S)-1-(4-amino-3-fluorophenyl)propan-2-yl)-7,7a-dihydrobenzo[d][1,3]dioxol-5(6H)-one]
IC50 ([1]; Table 5): 810 nM
IC50 ([2]; NCI-H460, Table 5): 2500 nM

C=CC[C@H]1C[C@]2([C@H](C)Cc3ccc(OC)c(N(C)C)c3)OCOC2=CC1=O [Compound 97, (6S,7aR)-6-allyl-7a-((R)-1-(3-(dimethylamino)-4-methoxyphenyl)propan-2-yl)-7,7a-dihydrobenzo[d][1,3]dioxol-5(6H)-one]
IC50 ([1]; Table 4): > 20000 nM
IC50 ([2]; NCI-H460, Table 4): > 20000 nM

C=CC[C@H]1C[C@]2([C@H](C)Cc3ccc(N(C)C)c(F)c3)OCOC2=CC1=O [Compound 46, (6S,7aR)-6-allyl-7a-((R)-1-(4-(dimethylamino)-3-fluorophenyl)propan-2-yl)-7,7a-dihydrobenzo[d][1,3]dioxol-5(6H)-one]
IC50 ([1]; Table 5): 640 nM
IC50 ([2]; NCI-H460, Table 5): 1400 nM

CC[C@H]1C[C@]2([C@@H](C)Cc3cc(F)c(OC)cc3F)OCOC2=CC1=O [Compound 57]
IC50 ([1]; Table 7): 140 nM
IC50 ([2]; NCI-H460, Table 7): 200 nM

C=CC[C@H]1C[C@]2([C@@H](C)Cc3cc(C(=O)NC)c(OC)cc3F)OCOC2=CC1=O [Compound 12, 5-((S)-2-((3aR,5S)-5-allyl-6-oxo-3a,4,5,6-tetrahydrobenzo[d][1,3]dioxol-3a-yl)propyl)-4-fluoro-2-methoxy-N-methylbenzamide]
IC50 ([1]; Table 3): 240 nM
IC50 ([2]; NCI-H460, Table 3): 520 nM

C=CC[C@H]1C[C@]2([C@@H](C)Cc3cc(NC(C)=O)c(OC)cc3F)OCOC2=CC1=O [Compound 18, N-(5-((S)-2-((3aR,5S)-5-allyl-6-oxo-3a,4,5,6-tetrahydrobenzo[d][1,3]dioxol-3a-yl)propyl)-4-fluoro-2-methoxyphenyl)acetamide]
IC50 ([1]; Table 3): 160 nM
IC50 ([2]; NCI-H460, Table 3): 410 nM

C=CC[C@H]1C[C@]2([C@@H](C)Cc3cc(C#N)c(OC)cc3F)OCOC2=CC1=O [Compound 14, 5-((S)-2-((3aR,5S)-5-allyl-6-oxo-3a,4,5,6-tetrahydrobenzo[d][1,3]dioxol-3a-yl)propyl)-4-fluoro-2-methoxybenzonitrile]
IC50 ([1]; Table 3): 37 nM
IC50 ([2]; NCI-H460, Table 3): 150 nM

COc1ccc(C[C@H](C)[C@]23C[C@H](CC4CC4)C(=O)C=C2OCO3)c(F)c1 (relative stereo) [Compound 63, (7aR)-6-(cyclopropylmethyl)-7a-((S)-1-(2-fluoro-4-methoxyphenyl)propan-2-yl)-7,7a-dihydrobenzo[d][1,3]dioxol-5(6H)-one]
IC50 ([1]; Table 7): > 20000 nM
IC50 ([2]; NCI-H460, Table 7): 1700 nM

C=CC[C@H]1C[C@]2([C@@H](C)Cc3ccc4c(c3)OCO4)OCOC2=CC1=O [Compound 83, (6S,7aR)-6-allyl-7a-((S)-1-(benzo[d][1,3]dioxol-5-yl)propan-2-yl)-7,7a-dihydrobenzo[d][1,3]dioxol-5(6H)-one]
IC50 ([1]; Table 8): 650 nM
IC50 ([2]; NCI-H460, Table 8): 390 nM

C=C(Cl)C[C@H]1C[C@]2([C@@H](C)Cc3ccc(OC)cc3F)OCOC2=CC1=O [Compound 79, (6R,7aR)-6-(2-chloroallyl)-7a-((S)-1-(2-fluoro-4-methoxyphenyl)propan-2-yl)-7,7a-dihydrobenzo[d][1,3]dioxol-5(6H)-one]
IC50 ([1]; Table 7): 1300 nM
IC50 ([2]; NCI-H460, Table 7): 2500 nM
